Assay results reported in patent US12478569B2, “Compositions methods and device for enhancing dental care based on dead sea salt and cannabinoid or extract of cannabis plant” (CANNIBITE BVBA, priority 2019, dated 2025).

Experiments:
Assay type in all cases: cell-based
gingival plaque = experiment: Cannabinoid effects on gingival plaque in vitro in subjects with gum disease (FIG. 2)
Description: FIG. 2A-2F illustrate the effects of selected cannabinoids on gingival plaque in various individuals. Samples of gingival plaque were obtained from individuals A-F with various degrees of gum disease, samples were plated in the presence of various cannabinoids, cannabinoid formulations or essential oils, and cultured as above (samples A-F correspond to plates 1-6).
The effects of cannabinoids on gum disease was further investigated in a series of subjects with various degrees of gingivitis (an earliest and mildest form) or periodontitis (full-fledged gum disease), the severity of gum disease was further evaluated using Dutch Periodontal Screening Index (DPSI).
Samples of gingival plaque were obtained from 6 subjects (A-F) with various degrees of gum disease, samples were plated and cultured for 2 days at 37° C. in the presence of various cannabinoids and cannabinoid combinations.

dental flora (plaque) = experiment: Cannabinoid sensitivity tests in vitro on dental flora (plaque) of 10 subjects; design: key to suppression of bacterial flora (score): Increasing scores (+) indicate an increased suppression of bacterial flora; details: for suppression of bacterial flora (score): dental flora in vitro
Description: Subsequently, in a more extended in vitro trial the effectiveness of cannabinoids was determined in 10 subjects (A-J). Samples of dental flora (plaque) were collected by swabs, scrapes, and were tested on the following panel of cannabinoids and cannabinoid combinations: • 1=CBD • 2=CBD+CBN • 3=CBD+CBN+CBG • 4=CBD+CBN+CBG+CBC • 5=CBD+CBN+CBG+CBC+CBGA • 6=CHG reference antimicrobial agent • 7=control with no antiseptic or antimicrobial agent.
Bacterial sensitivity was determined by conventional methods, e.g., growth on selective media, microscopic fluorescence examination.

dental biofilm/plaque = experiment: Preliminary case study: dental biofilm/plaque sample plated and cultured in the presence of cannabinoids (FIG. 1); details: dental plaque sample cultured for 2 days at 37° C.
Description: FIG. 1 illustrates a case study on the antimicrobial effect of cannabinoids on dental plaque. A sample of dental plaque was plated in the presence CBD or CBG and a reference antimicrobial agent (chlorhexidine gluconate, CHG), and cultured for 2 days at 37° C. The resulting bacterial colonies are shown.
A sample of dental biofilm/plaque was obtained, plated and cultured for 2 days at 37° C. in the presence of two types of cannabinoids, CBD and CBG, and Chlorhexidine (CHG) as a reference antimicrobial agent.

[1] = subject A, moderate gingivitis, DPSI score 1, 2 days at 37° C.
[2] = subject C, periodontitis, DPSI score −3, 2 days at 37° C.
[3] = subject D, moderate gingivitis, DPSI score 2, 2 days at 37° C.
[4] = subject E, advanced periodontitis, DPSI score +3, 2 days at 37° C.
[5] = subject F, moderate gingivitis, DPSI score 1, 2 days at 37° C.

Row | SMILES | Relative effectiveness (gingival plaque; [1]) | Relative effectiveness (gingival plaque; [2]) | Relative effectiveness (gingival plaque; [3]) | Relative effectiveness (gingival plaque; [4]) | Relative effectiveness (gingival plaque; [5]) | bacterial growth in the saturated zone (dental biofilm/plaque) | other results
1 | CCCCCc1cc(O)c2c(c1)OC(C)(CCC=C(C)C)C=C2 (stereo not drawn) [CBC, Cannabichromene] | CBG > CBGA > CBN ≈ CBC | CBC > CBG > CBD > CBN | CBGA > CBC > CBG ≈ CBN | CBG ≈ CBGA > CBC > CBD | CBC > CBG ≈ CBGA ≈ CBD |  | 
2 | C=C(C)[C@@H]1CCC(C)=C[C@H]1c1c(O)cc(CCCCC)cc1O [CBD, Cannabidiol] |  | CBC > CBG > CBD > CBN |  | CBG ≈ CBGA > CBC > CBD | CBC > CBG ≈ CBGA ≈ CBD | no growth | effectiveness on suppression of dental flora in vitro (dental flora (plaque); in many individuals): sufficiently effective; most effective panel of cannabinoids (dental flora (plaque); patient B): most effective; Relative effectiveness (gingival plaque; subject B, no gingivitis and no pathology, DPSI score 0, 2 days at 37° C.): POM ≈ POM form. ≈ CBD > CBD form.
3 | CCCCCc1cc(O)c(C/C=C(\C)CCC=C(C)C)c(O)c1 [CBG, Cannabigerol] | CBG > CBGA > CBN ≈ CBC | CBC > CBG > CBD > CBN | CBGA > CBC > CBG ≈ CBN | CBG ≈ CBGA > CBC > CBD | CBC > CBG ≈ CBGA ≈ CBD | lesser bacterial growth | 
4 | CCCCCc1cc(O)c(C/C=C(\C)CCC=C(C)C)c(O)c1C(=O)O [CBGA, Cannabigerolic acid] | CBG > CBGA > CBN ≈ CBC |  | CBGA > CBC > CBG ≈ CBN | CBG ≈ CBGA > CBC > CBD | CBC > CBG ≈ CBGA ≈ CBD |  | 
5 | CCCCCc1cc(O)c2c(c1)OC(C)(C)c1ccc(C)cc1-2 [CBN, Cannabinol] | CBG > CBGA > CBN ≈ CBC | CBC > CBG > CBD > CBN | CBGA > CBC > CBG ≈ CBN |  |  |  | 
6 | N=C(NCCCCCCNC(=N)NC(=N)Nc1ccc(Cl)cc1)NC(=N)Nc1ccc(Cl)cc1.O=C(O)[C@H](O)[C@@H](O)[C@H](O)[C@H](O)CO.O=C(O)[C@H](O)[C@@H](O)[C@H](O)[C@H](O)CO [CHG, chlorhexidine gluconate] |  |  |  |  |  | lesser bacterial growth | suppression of bacterial flora (score) (dental flora (plaque); subject A): + +; suppression of bacterial flora (score) (dental flora (plaque); subject B): + +; suppression of bacterial flora (score) (dental flora (plaque); subject C): +; suppression of bacterial flora (score) (dental flora (plaque); subject D): + +; suppression of bacterial flora (score) (dental flora (plaque); subject E): − −; suppression of bacterial flora (score) (dental flora (plaque); subject F): − −; suppression of bacterial flora (score) (dental flora (plaque); subject G): + + +; suppression of bacterial flora (score) (dental flora (plaque); subject H): +; suppression of bacterial flora (score) (dental flora (plaque); subject I): + +; suppression of bacterial flora (score) (dental flora (plaque); subject J): − −
